Test results reported in patent US11701434B2, “Tertiary amino lipidated cationic peptides for nucleic acid delivery” (Nutcracker Therapeutics, Inc., priority 2018, dated 2023).

Columns and labels:
[1] = Dynamic light scattering (DLS) of Fluc mRNA/peptoid formulations: particle size and polydispersity; assay type: physicochemical; details: 5:1 mass ratio peptoid:cargo; for Size (volume average particle size/diameter): Fluc mRNA/peptoid complex; for Size PDI (size polydispersity index): Fluc mRNA/peptoid formulation
Protocol: (§1) In standard formulations, the tertiary amino lipidated and/or PEGylated cationic peptide compound is dissolved in anhydrous ethanol at a concentration of 0.5 mg/mL (for in vitro experiments) or 5 mg/mL (for in vivo experiments). The resulting solutions are stable at room temperature, but should be stored at −20° C. The nucleic acid cargo is dissolved in DNAse or RNAse-free water at a final concentration of 0.2 mg/mL (for in vitro experiments) or 1 mg/mL (for in vivo experiments). These solutions should be stored at −20° C. or at −78° C. for longer time periods. To prepare nanoparticle formulations, the tertiary amino lipidated and/or PEGylated cationic peptide compound is mixed by pipetting with nucleic acid at a mass ratio between approximately 1:1 (peptide compound:cargo) and 20:1. Prior to formulation, tertiary amino lipidated and/or PEGylated cationic peptide compounds and cargo (such as nucleic acid) are diluted in ethanol and acidic buffer (PBS adjusted to pH 5.5 with 0.1 M HCl) respectively to a volume ratio of 1:3 and to target a final cargo concentration of approximately 0.05 mg/mL to 0.2 mg/mL. The exemplary amino lipidated cationic peptoids 1-36 described in Example 2 were combined with firefly luciferase (Flue) mRNA to form nanoparticle compositions to be evaluated for therapeutic and/or prophylactic purposes in vitro or in vivo. The formulations were prepared according to the protocol of Example 3 and mixed by simple pipetting. The mRNA/peptoid formulation at a 5:1 mass ratio of peptoid:cargo were evaluated by dynamic light scattering (DLS) in order to determine the volume average particle size/diameter (nm) of the mRNA/peptoid complex and the size polydispersity index (PDI) within the formulation. The percentage of mRNA encapsulation for each formulation of the exemplary compounds were determined by fluorescence of the Qubit RNA HS (Invitrogen) dye before and after lysis of particles by Triton X-100.

[2] = mRNA encapsulation by Qubit RNA HS dye fluorescence before and after Triton X-100 lysis; assay type: physicochemical; details: Fluc mRNA/peptoid formulation, 5:1 mass ratio peptoid:cargo
Protocol: as §1

SMILES | Size (volume average particle size/diameter) [1] [nm] | Size PDI (size polydispersity index) [1] | % Encapsulation (percentage of mRNA encapsulation) [2] [%]
CCCCCCCCCCN(CC(N)=O)C(=O)CN(CCCCCCCCCC)C(=O)CN(CCc1ccccc1)C(=O)CN(CCc1ccccc1)C(=O)CNCCN [Compound 9] | 367.9 | 0.122 | 73.9
CCCCCCCCCCN(CC(N)=O)C(=O)CN(CCCCCCCCCC)C(=O)CN(CCN)C(=O)CN(CCN)C(=O)CNCCN [Compound 14] | 554 | 0.233 | 77.3
CCCCCCCCCCN(CC(N)=O)C(=O)CN(CCCCCCCCCC)C(=O)CN(CCN)C(=O)CN(CCN)C(=O)CN(CCN)C(=O)CN(CCN)C(=O)CN(CCN)C(=O)CN(CCN)C(=O)CN(CCN)C(=O)CN(CCN)C(=O)CNCCN [Compound 16] | 1486 | 1 | 85.4
CCCCCCCCCCN(CC(N)=O)C(=O)CN(CCCCCCCCCC)C(=O)CN(CCc1ccccc1)C(=O)CN(CCc1ccccc1)C(=O)CN(CCN)C(=O)CN(CCc1ccccc1)C(=O)CN(CCc1ccccc1)C(=O)CNCCN [Compound 10] | 157 | 0.009 | 92.6
CCCCCCCCCCN(CC(N)=O)C(=O)CN(CCCCCCCCCC)C(=O)CN(CCCCCCCCCC)C(=O)CN(CCCCCCCCCC)C(=O)CN(CCCCCCCCCC)C(=O)CN(CCCCCCCCCC)C(=O)CN(CCCCCCCCCC)C(=O)CN(CCc1ccccc1)C(=O)CN(CCc1ccccc1)C(=O)CN(CCN)C(=O)CN(CCc1ccccc1)C(=O)CN(CCc1ccccc1)C(=O)CN(CCN)C(=O)CN(CCc1ccccc1)C(=O)CN(CCc1ccccc1)C(=O)CNCCN [Compound 23] |  |  | 3.9
CCCCCCCCCCN(CC(N)=O)C(=O)CN(CCc1ccccc1)C(=O)CN(CCc1ccccc1)C(=O)CN(CCN)C(=O)CN(CCc1ccccc1)C(=O)CN(CCc1ccccc1)C(=O)CN(CCN)C(=O)CN(CCc1ccccc1)C(=O)CN(CCc1ccccc1)C(=O)CNCCN [Compound 6] | 448.6 | 0.348 | 92.4
CCCCCCCCCCCCN(CC(N)=O)C(=O)CN(CCCCCCCCCCCC)C(=O)CN(CCc1ccc(OC)cc1)C(=O)CN(CCc1ccc(OC)cc1)C(=O)CN(CCN)C(=O)CN(CCc1ccc(OC)cc1)C(=O)CN(CCc1ccc(OC)cc1)C(=O)CN(CCN)C(=O)CN(CCc1ccc(OC)cc1)C(=O)CN(CCc1ccc(OC)cc1)C(=O)CNCCN [Compound 4] | 326.7 | 0.191 | 99.0
CCCCCCCCCCN(CC(N)=O)C(=O)CN(CCCCCCCCCC)C(=O)CN(CCCCCCCCCC)C(=O)CN(CCCCCCCCCC)C(=O)CN(CCCCCCCCCC)C(=O)CN(CCc1ccccc1)C(=O)CN(CCc1ccccc1)C(=O)CN(CCN)C(=O)CN(CCc1ccccc1)C(=O)CN(CCc1ccccc1)C(=O)CNCCN [Compound 20] | 326.6 | 0.37 | 72.2
CCCCCCCCCCN(CC(N)=O)C(=O)CN(CCCCCCCCCC)C(=O)CN(CCCCCCCCCC)C(=O)CN(CCCCCCCCCC)C(=O)CN(CCc1ccccc1)C(=O)CN(CCc1ccccc1)C(=O)CN(CCNC)C(=O)CN(CCc1ccccc1)C(=O)CN(CCc1ccccc1)C(=O)CN(CCNC)C(=O)CN(CCc1ccccc1)C(=O)CN(CCc1ccccc1)C(=O)CN(CCNC)C(=O)CN(CCc1ccccc1)C(=O)CN(CCc1ccccc1)C(=O)CNCCNC [Compound 26] |  |  | 35.7
CCCCCCCCCCN(CC(N)=O)C(=O)CN(CCCCCCCCCC)C(=O)CN(CCN)C(=O)CN(CCN)C(=O)CN(CCN)C(=O)CN(CCN)C(=O)CNCCN [Compound 15] | 1064 | 1 | 76.9
CCCCCCCCCCNCC(=O)N(CCN)CC(=O)N(CCc1ccccc1)CC(=O)N(CCc1ccccc1)CC(=O)N(CCN)CC(=O)N(CCc1ccccc1)CC(=O)N(CCc1ccccc1)CC(=O)N(CCN)CC(=O)N(CCc1ccccc1)CC(=O)N(CCc1ccccc1)CC(=O)N(CCCCCCCCCC)CC(N)=O [Compound 18] | 593 | 0.762 | 88.5
CCCCCCCCCCCCCCCCCCN(CC(N)=O)C(=O)CN(CCCCCCCCCCCCCCCCCC)C(=O)CN(CCc1ccccc1)C(=O)CN(CCc1ccccc1)C(=O)CN(CCN)C(=O)CN(CCc1ccccc1)C(=O)CN(CCc1ccccc1)C(=O)CN(CCN)C(=O)CN(CCc1ccccc1)C(=O)CN(CCc1ccccc1)C(=O)CNCCN [Compound 5] | 364.7 | 0.308 | 88.3
CCCCCCCCCCN(CC(N)=O)C(=O)CN(CCCCCCCCCC)C(=O)CN(CCc1ccccc1)C(=O)CN(CCc1ccccc1)C(=O)CN(CCN)C(=O)CN(CCc1ccccc1)C(=O)CN(CCc1ccccc1)C(=O)CN(CCN)C(=O)CN(CCc1ccccc1)C(=O)CN(CCc1ccccc1)C(=O)CNCCN [Compound 2] | 150 | 0.128 | 100.3
CCCCCCCCCCN(CC(N)=O)C(=O)CN(CCCCCCCCCC)C(=O)CN(CCc1ccccc1)C(=O)CN(CCc1ccccc1)C(=O)CN(CCN)C(=O)CN(CCc1ccccc1)C(=O)CN(CCc1ccccc1)C(=O)CN(CCN)C(=O)CN(CCc1ccccc1)C(=O)CN(CCc1ccccc1)C(=O)CN(CCN)C(=O)CN(CCc1ccccc1)C(=O)CN(CCc1ccccc1)C(=O)CNCCN [Compound 11] | 354.9 | 0.038 | 87.8

Results, then the compound that gave them:

Size (volume average particle size/diameter) [1] [nm] | Size PDI (size polydispersity index) [1] | % Encapsulation (percentage of mRNA encapsulation) [2] [%] | SMILES
374.4 | 0.127 | 71.5 | CCCCCCCCCCN(CC(N)=O)C(=O)CN(CCCCCCCCCC)C(=O)CN(CCc1ccccc1)C(=O)CN(CCc1ccccc1)C(=O)CN(CC1CCCN1)C(=O)CN(CCc1ccccc1)C(=O)CN(CCc1ccccc1)C(=O)CN(CC1CCCN1)C(=O)CN(CCc1ccccc1)C(=O)CN(CCc1ccccc1)C(=O)CNCC1CCCN1 (centres unmarked) [Compound 36]
438.7 | 0.606 | 50.9 | CCCCCCCCCCN(CC(N)=O)C(=O)CN(CCCCCCCCCC)C(=O)CN(CCc1ccccc1)C(=O)CN(CCc1ccccc1)C(=O)CN(CCNC)C(=O)CN(CCc1ccccc1)C(=O)CN(CCc1ccccc1)C(=O)CN(CCNC)C(=O)CN(CCc1ccccc1)C(=O)CN(CCc1ccccc1)C(=O)CNCCNC [Compound 27]
348.5 | 0.404 | 35.7 | CCCCCCCCCCN(CC(N)=O)C(=O)CN(CCCCCCCCCC)C(=O)CN(CCCCCCCCCC)C(=O)CN(CCCCCCCCCC)C(=O)CN(CCc1ccccc1)C(=O)CN(CCc1ccccc1)C(=O)CN(CC1CCNCC1)C(=O)CN(CCc1ccccc1)C(=O)CN(CCc1ccccc1)C(=O)CN(CC1CCNCC1)C(=O)CN(CCc1ccccc1)C(=O)CN(CCc1ccccc1)C(=O)CNCC1CCNCC1 [Compound 31]
247.5 | 0.274 | 50.9 | CCCCCCCCCCN(CC(N)=O)C(=O)CN(CCCCCCCCCC)C(=O)CN(CCCCCCCCCC)C(=O)CN(CCCCCCCCCC)C(=O)CN(CCc1ccccc1)C(=O)CN(CCc1ccccc1)C(=O)CN(CC1CCNCC1)C(=O)CN(CCc1ccccc1)C(=O)CN(CCc1ccccc1)C(=O)CN(CC1CCNCC1)C(=O)CN(CCc1ccccc1)C(=O)CN(CCc1ccccc1)C(=O)CN(CC1CCNCC1)C(=O)CN(CCc1ccccc1)C(=O)CN(CCc1ccccc1)C(=O)CNCC1CCNCC1 [Compound 32]
435.7 | 0.048 | 82.0 | CCCCCCCCCCN(CC(N)=O)C(=O)CN(CCCCCCCCCC)C(=O)CN(CCc1ccccc1)C(=O)CN(CCc1ccccc1)C(=O)CN(CC1CCNCC1)C(=O)CN(CCc1ccccc1)C(=O)CN(CCc1ccccc1)C(=O)CN(CC1CCNCC1)C(=O)CN(CCc1ccccc1)C(=O)CN(CCc1ccccc1)C(=O)CNCC1CCNCC1 [Compound 33]
282.8 | 0.455 | 8.4 | CCCCCCCCCCN(CC(N)=O)C(=O)CN(CCCCCCCCCC)C(=O)CN(CCc1ccccc1)C(=O)CN(CCc1ccccc1)C(=O)CN(CCCN)C(=O)CN(CCc1ccccc1)C(=O)CN(CCc1ccccc1)C(=O)CN(CCCN)C(=O)CN(CCc1ccccc1)C(=O)CN(CCc1ccccc1)C(=O)CNCCCN [Compound 30]
